Columns and labels:
[1] = system: patients with moderate to severe intensity migraine; experiment: large open-label Phase 2 trial of rimegepant; type: in vivo, human
Description: The goal of our strategy is to deliver one medication to address patients' needs for treating their migraines.

[2] = system: patients with episodic and chronic migraine; experiment: BHV3000-305 Phase 2/3 randomized, double-blind, placebo-controlled study of rimegepant in migraine prevention (NCT03732638): efficacy; type: in vivo, human
Protocol: Clinical Trial—BHV3000-305: A Phase ⅔, Randomized, Double-blind, Placebo-controlled Study to Evaluate the Efficacy and Safety of Rimegepant in Migraine Prevention (ClinicalTrials.gov Identifier: NCT03732638).
A phase ⅔ clinical study was conducted with 1629 participants, as follows.
The purpose of this is study is to compare the efficacy of BHV-3000 (rimegepant) to placebo as a preventive treatment for migraine, as measured by the reduction in the number of migraine days per month.
Study Design • Study Type: Interventional (Clinical Trial) • Actual Enrollment: 1629 participants • Allocation: Randomized • Intervention Model: Parallel Assignment • Masking: Triple (Participant, Care Provider, Investigator) • Primary Purpose: Prevention • Official Title: A Phase ⅔, Randomized, Double-blind, Placebo-controlled Study to Evaluate the Efficacy and Safety of Rimegepant in Migraine Prevention • Actual Study Start Date: Nov. 14, 2018 • Actual Primary Completion Date: Dec. 10, 2019 • Estimated Study Completion Jan. 30, 2021 • Date:
Primary Outcome Measures: • 1. Change from baseline in mean number of migraine days per month [Time Frame: Mean number of migraine days per month as assessed over 3 months (12 weeks)] Change from baseline in mean number of migraine days per month as measured over the 12-week double-blind phase of the study.
Secondary Outcome Measures: • 1. Achievement of at least a 50% reduction from baseline in mean number of moderate to severe monthly migraine days. [Time Frame: baseline to end of Week 12] Achievement of at least a 50% reduction from baseline in mean number of moderate to severe monthly migraine days over course of the double-blind treatment phase. • 2. The mean number of rescue medication days per month. [Time Frame: baseline to end of week 12 as measure per month] The mean number of rescue medication days per month over the course of the double-blind, treatment phase. Rescue medications include the rescue medications defined in this protocol. • 3. Adverse events. [Time Frame: baseline to end of Week 12] Adverse events that occur in at least 5% of treated subjects; the frequency of unique subjects with serious adverse events, adverse events leading to discontinuation and clinically significant laboratory abnormalities, as reported on case report forms. • 4. The frequency of AST or ALT elevations. [Time Frame: baseline to end of Week 12] The frequency of AST or ALT elevations >3×ULN, concurrently with bilirubin elevations >2× ULN, will be assessed by tabulating the number of unique subjects with this pairing of events. • 5. The frequency of hepatic-related adverse events and hepatic-related treatment. [Time Frame: baseline to end of Week 12] The frequency of hepatic-related adverse events and hepatic-related treatment discontinuations will be tabulated from case report forms and will be based on unique subjects reporting such events. • 6. The mean change from baseline in the MSQ role function [Time Frame: baseline to end of Week 12] The mean change from baseline in the MSQ role function—restrictive domain score at Week 12 of the double-blind treatment phase. • 7. The mean change from baseline in the MIDAS total score. [Time Frame: baseline to end of Week 12]
The mean change from baseline in the MIDAS total score at Week 12 of the double-blind treatment phase.
This pivotal study enrolled patients with both episodic and chronic migraine. The study evaluated the efficacy and safety of rimegepant 75 mg (n=370) dosed every other day for the preventive treatment of migraine in patients versus placebo (n=371) who had migraine for at least one year and 4 to 18 moderate to severe migraine attacks per month over three months prior to enrollment. During the one-month observation period, patients experienced on average 10.7 migraine days per month, with 7.4 migraine days of moderate to severe migraine during the same period.

[3] = BHV3000-305 study: adverse events and liver safety on double-blind treatment
[4] = 370 patients, rimegepant 75 mg every other day
[5] = Severity: Mild, Treated Subjects N = 370
[6] = Severity: Moderate or Severe, Treated Subjects N = 370
[7] = Severity: Moderate, Treated Subjects N = 370
[8] = Severity: Total, Treated Subjects N = 370

SMILES: N[C@@H]1c2cccnc2[C@H](OC(=O)N2CCC(n3c(=O)[nH]c4ncccc43)CC2)CC[C@H]1c1cccc(F)c1F [Rimegepant, [(5S,6S,9R)-5-amino-6-(2,3-difluorophenyl)-6,7,8,9-tetrahydro-5H-cyclohepta[b]pyridin-9-yl] 4-(2-oxo-3H-imidazo[4,5-b]pyridin-1-yl)piperidine-1-carboxylate]
- reduction in migraine days per month [1]: ≤ 5.3 days
- MSQoL Restrictive Role Function Domain Score Change From Baseline at Week 12, Difference (Rimegepant − Placebo) ([2]; 95% CI (0.23, 6.70), P-value 0.0358): 3.5
- >=50% Reduction in Moderate or Severe Migraine Days per Month in Last Month, Stratified Risk Difference (Rimegepant − Placebo) ([2]; 95% CI (−0.6, 14.1), P-value 0.0734): 6.7
- Rescue Medication Days per Month in Last Month, Difference (Rimegepant − Placebo) ([2]; 95% CI (−0.80, 0.31), P-value 0.3868): −0.2 Days per Month
- Change From OP in Mean Number of Total Migraine Days per Month Overall, Difference (Rimegepant − Placebo) ([2]; 95% CI (−1.23, −0.17), P-value 0.0094): −0.7 Days per Month
- Change From OP in Mean Number of Total Migraine Days per Month in Last Month, Difference (Rimegepant − Placebo) ([2]; 95% CI (−1.42, −0.14), P-value 0.0176, significant in hierarchical testing): −0.8 Days per Month
- Change From OP in Mean Number of Total Migraine Days per Month In First Month, Difference (Rimegepant − Placebo) ([2]; 95% CI (−1.49, −0.36), P-value 0.0013): −0.9 Days per Month
- MIDAS Total Score Change From Baseline at Week 12, Difference (Rimegepant − Placebo) ([2]; 95% CI (−4.74, 4.51), P-value 0.9616): −0.1
- >=50% Reduction From OP in Mean Number of Moderate or Severe Migraine Days per Month in Last Month, Response Rate (n/N) ([2]; evaluable mITT): 167/348
- Primary Endpoint: Change From OP in Mean Number of Total Migraine Days per Month in Last Month, Least-squares mean ([2]; evaluable mITT N = 348, 75 mg every other day, 95% CI (−4.95, −3.97)): −4.5 Days per Month
- Rescue Medication Days per Month in Last Month, Least-squares mean ([2]; evaluable mITT N = 348, 95% CI (3.29, 4.15)): 3.7 Days per Month
- Change From OP in Mean Number of Total Migraine Days per Month In First Month, Least-squares mean ([2]; evaluable mITT N = 348, 95% CI (−3.04, −2.17)): −2.6 Days per Month
- Change From OP in Mean Number of Total Migraine Days per Month Overall, Least-squares mean ([2]; evaluable mITT N = 348, 95% CI (−3.94, −3.12)): −3.5 Days per Month
- MSQoL Restrictive Role Function Domain Score Change From Baseline at Week 12, Least-squares mean ([2]; n 269, 95% CI (15.54, 20.56)): 18.0
- MIDAS Total Score Change From Baseline at Week 12, Least-squares mean ([2]; n 269, 95% CI (−15.41, −8.21)): −11.8
- reduction in mean number of migraine days as compared to placebo, (4.9-3.7)/3.7*100 ([2]; participants not taking concomitant preventive treatment): 32%
- reduction from baseline in monthly migraine days ([2]; rimegepant 75 mg every other day, vs 3.7 day in placebo group, p=0.0176): 4.5 days
- reduction from baseline in monthly migraine days, participants not taking concomitant preventive treatment ([2]; rimegepant group n=273, vs 3.7 day in placebo group (n=269)): 4.9 days
- >=50% Reduction From OP in Mean Number of Moderate or Severe Migraine Days per Month in Last Month, Stratified Risk ([2]; stratified by prophylactic migraine medication use, 95% CI (42.7, 53.2)): 48.0
- share of group with at least a 50% reduction from baseline in the mean number of moderate to severe migraine days per month ([2]; vs 41% in the placebo group): 48%
- cases of ALT or AST >3×ULN and bilirubin >2×ULN [3, 4]: no cases
- independent liver monitoring panel assessment of ALT/AST elevations [3, 4]: did not determine any ALT/AST elevations to be in the categories of probably or definitely related to study drug
- safety profile [3, 4]: consistent with prior clinical trial experience
- Enterobiasis [3, 5]: 0 n
- Folliculitis [3, 5]: 0 n
- Oral candidiasis [3, 5]: 0 n
- Orchitis [3, 5]: 0 n
- Otitis media [3, 5]: 0 n
- Acute sinusitis [3, 6]: 0 n
- Appendicitis [3, 6]: 0 n
- Bacterial vaginosis [3, 6]: 0 n
- Herpes zoster [3, 6]: 0 n
- Pharyngitis streptococcal [3, 6]: 0 n
- Pneumonia [3, 6]: 0 n
- Pyelonephritis [3, 6]: 0 n
- Sepsis [3, 6]: 0 n
- Acute sinusitis [3, 7]: 0 n
- Appendicitis [3, 7]: 0 n
- Bacterial vaginosis [3, 7]: 0 n
- Herpes zoster [3, 7]: 0 n
- Pharyngitis streptococcal [3, 7]: 0 n
- Sepsis [3, 7]: 0 n
- Acute sinusitis [3, 8]: 0 n
- Appendicitis [3, 8]: 0 n
- Enterobiasis [3, 8]: 0 n
- Folliculitis [3, 8]: 0 n
- Oral candidiasis [3, 8]: 0 n
- Orchitis [3, 8]: 0 n
- Otitis media [3, 8]: 0 n
- Pelvic inflammatory disease [3, 8]: 0 n
- Pertussis [3, 8]: 0 n
- Pharyngitis streptococcal [3, 8]: 0 n
- Pneumonia [3, 8]: 0 n
- Pyelonephritis [3, 8]: 0 n
- Sepsis [3, 8]: 0 n
- Tooth infection [3, 8]: 0 n

From patent US20230285380A1, “DUAL TREATMENT OF MIGRAINE” (priority 2021, published 2023)
